According to patent EP1816136A1, “GPR7-SELECTIVE LIGAND AND USE THEREOF” (BANYU PHARMACEUTICAL CO., LTD., priority 2004, dated 2006):
Non-standard residues stand in square brackets, D forms with d. Residues, ends and D or L forms follow the SMILES beside them. 3Abz = Nc1cccc(C(=O)O)c1; 4Abz = Nc1ccc(C(=O)O)cc1; 2Abz = Nc1ccccc1C(=O)O; Ava = NCCCCC(=O)O

Key:
GPR8 = target: T1, GPR8 (Homo sapiens, UniProt P48146); assay: Binding inhibition test with [125I]-[Phe2]-hNPW(1-23), GPR8 membrane preparation
T1 construct: expressed in transfected cells; host or cells: HEK293/CRE-BLA cells (AURORA), expression vector pIRES-hygro (Clontech)
Procedure: (§1) One nmol of [Phe2]-hNPW(1-23) (prepared in Synthesis Example 19) was dissolved in 5 µL of anhydrous DMSO, and the solution was mixed with 0.1M nickel chloride. Then, the mixture was mixed with 10 µL of a 0.00 1 % aqueous solution of hydrogen peroxide, 10 µL of an enzyme solution (lactoperoxidase (Sigma) adjusted to 10 µg/mL with a 0.1M HEPES buffer solution), and 37 Mbq/10 µL of Iodine-125 (Amersham), whereafter the resulting mixture was reacted for 60 minutes at room temperature. The reaction was terminated with the addition of 10 µL of 1% sodium azide, and then a radiolabeled peptide fraction was collected by a PD-10 gel filtration column (Amersham) to obtain [^125I]-[Phe2]-hNPW(1-23).
(§2) A cDNA sequence coding for human GPR7 or GPR8 [see Genomics, vol. 28, p. 84 (1995)] was amplified by the PCR method, and cloned using the expression vector pIRES-hygro (Clontech). The resulting expression vector was transfected into HEK293/CRE-BLA cells (AURORA) using the cationic lipid method [see Proceedings of the National Academy of Sciences of the United States of America, vol. 84, p. 7413 (1987)] to obtain GPR7 or GPR8 expression cells.
(§3) A membrane preparation prepared from the cells expressing GPR7 or GPR8 was incubated for 1 hour at room temperature in an assay buffer solution (25 mM Tris buffer solution, 150 mM NaCl, pH 7.4) together with a test compound and 28,000 cpm of [^125I]-[Phe2]-hNPW(1-23). Then, the system was filtered through the glass filter GF/C. After washing with 25 mM Tris buffer solution (pH 7.4), radioactivity on the glass filter was measured. Nonspecific binding was measured in the presence of 1 µM hNPW (prepared in Synthesis Example 1), and the 50% inhibition concentration (IC50 value) of the test compound against [Phe2]-hNPW(1-23) specific binding was calculated [see Molecular Pharmacology, vol. 55, 1101 (1999)].

GPR7 = target: T2, GPR7 (Homo sapiens, UniProt P48145); assay: Binding inhibition test with [125I]-[Phe2]-hNPW(1-23), GPR7 membrane preparation
T2 construct: expressed in transfected cells; host or cells: HEK293/CRE-BLA cells (AURORA), expression vector pIRES-hygro (Clontech)
T2 sequence (P48145 1-328): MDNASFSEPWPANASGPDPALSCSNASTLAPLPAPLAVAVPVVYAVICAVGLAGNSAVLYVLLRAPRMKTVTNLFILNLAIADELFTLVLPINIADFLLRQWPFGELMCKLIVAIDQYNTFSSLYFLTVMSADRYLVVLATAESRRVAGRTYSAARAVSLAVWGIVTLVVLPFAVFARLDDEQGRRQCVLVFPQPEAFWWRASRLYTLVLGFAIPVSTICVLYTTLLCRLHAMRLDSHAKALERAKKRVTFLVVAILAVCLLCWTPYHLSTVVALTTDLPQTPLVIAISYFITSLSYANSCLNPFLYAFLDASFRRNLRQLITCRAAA
Procedure: as §1, §2, §3

[1] = Table 2, membrane preparation of cells expressing GPR8
[2] = Table 2, membrane preparation of cells expressing GPR7

T1 sequence (P48146 whole entry): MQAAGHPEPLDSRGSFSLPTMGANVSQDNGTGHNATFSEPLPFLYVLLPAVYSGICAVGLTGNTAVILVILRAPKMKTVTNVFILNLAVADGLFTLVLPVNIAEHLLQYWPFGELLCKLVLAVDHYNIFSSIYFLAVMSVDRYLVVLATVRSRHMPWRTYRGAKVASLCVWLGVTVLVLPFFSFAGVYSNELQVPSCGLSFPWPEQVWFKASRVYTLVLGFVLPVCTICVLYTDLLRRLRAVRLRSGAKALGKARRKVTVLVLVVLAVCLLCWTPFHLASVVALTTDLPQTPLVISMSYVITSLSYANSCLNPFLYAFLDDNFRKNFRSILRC

| IC50 (GPR8; Table 1, membrane preparation of HEK293/CRE-BLA cells expressing GPR8, 1 hour at room temperature) | IC50 (GPR7; Table 1, membrane preparation of HEK293/CRE-BLA cells expressing GPR7, 1 hour at room temperature) | Structure (SMILES) | IC50 (GPR8; [1]) | IC50 (GPR7; [2]) |
| --- | --- | --- | --- | --- |
| 2600 nM | > 100 nM | CC(C)C[C@H](NC(=O)CNC(=O)[C@H](CO)NC(=O)[C@H](CC(C)C)NC(=O)[C@H](CC(C)C)NC(=O)CNC(=O)[C@H](C)NC(=O)[C@H](C)NC(=O)[C@H](CCCNC(=N)N)NC(=O)CNC(=O)CCCCNC(=O)CCCCNC(=O)CCCCNC(=O)CCCCNC(=O)CCCCNC(=O)[C@H](CCCCN)NC(=O)[C@H](Cc1ccc(O)cc1)NC(=O)[C@@H](N)Cc1c[nH]c2ccccc12)C(N)=O [compound 9] (H-WYK[Ava][Ava][Ava][Ava][Ava]GRAAGLLSGL-NH2) | – | – |
| – | – | CC(C)C[C@H](NC(=O)CNC(=O)[C@H](CO)NC(=O)[C@H](CC(C)C)NC(=O)[C@H](CC(C)C)NC(=O)CNC(=O)[C@H](C)NC(=O)[C@H](C)NC(=O)[C@H](CCCNC(=N)N)NC(=O)CNC(=O)c1ccccc1NC(=O)CCCCNC(=O)CCCCNC(=O)[C@H](CCCCN)NC(=O)[C@H](Cc1ccc(O)cc1)NC(=O)[C@@H](N)Cc1c[nH]c2ccccc12)C(N)=O [compound 10] (H-WYK[Ava][Ava][2Abz]GRAAGLLSGL-NH2) | 8000 nM | 4.7 nM |
| – | – | CC(C)C[C@H](NC(=O)CNC(=O)[C@H](CO)NC(=O)[C@H](CC(C)C)NC(=O)[C@H](CC(C)C)NC(=O)CNC(=O)[C@H](C)NC(=O)[C@H](C)NC(=O)[C@H](CCCNC(=N)N)NC(=O)CNC(=O)c1cccc(NC(=O)CCCCNC(=O)CCCCNC(=O)[C@H](CCCCN)NC(=O)[C@H](Cc2ccc(O)cc2)NC(=O)[C@@H](N)Cc2c[nH]c3ccccc23)c1)C(N)=O [compound 11] (H-WYK[Ava][Ava][3Abz]GRAAGLLSGL-NH2) | 13 nM | 0.37 nM |
| – | – | CC(C)C[C@H](NC(=O)CNC(=O)[C@H](CO)NC(=O)[C@H](CC(C)C)NC(=O)[C@H](CC(C)C)NC(=O)CNC(=O)[C@H](C)NC(=O)[C@H](C)NC(=O)[C@H](CCCNC(=N)N)NC(=O)CNC(=O)c1ccc(NC(=O)CCCCNC(=O)CCCCNC(=O)[C@H](CCCCN)NC(=O)[C@H](Cc2ccc(O)cc2)NC(=O)[C@@H](N)Cc2c[nH]c3ccccc23)cc1)C(N)=O [compound 12] (H-WYK[Ava][Ava][4Abz]GRAAGLLSGL-NH2) | 5.1 nM | 0.35 nM |
| – | – | CC(C)C[C@H](NC(=O)CNC(=O)[C@H](CO)NC(=O)[C@H](CC(C)C)NC(=O)[C@H](CC(C)C)NC(=O)CNC(=O)[C@H](C)NC(=O)[C@H](C)NC(=O)[C@H](CCCNC(=N)N)NC(=O)CNC(=O)CCCCNC(=O)c1ccccc1NC(=O)CCCCNC(=O)[C@H](CCCCN)NC(=O)[C@H](Cc1ccc(O)cc1)NC(=O)[C@@H](N)Cc1c[nH]c2ccccc12)C(N)=O [compound 13] (H-WYK[Ava][2Abz][Ava]GRAAGLLSGL-NH2) | 39 nM | 0.56 nM |
| – | – | CC(C)C[C@H](NC(=O)CNC(=O)[C@H](CO)NC(=O)[C@H](CC(C)C)NC(=O)[C@H](CC(C)C)NC(=O)CNC(=O)[C@H](C)NC(=O)[C@H](C)NC(=O)[C@H](CCCNC(=N)N)NC(=O)CNC(=O)CCCCNC(=O)c1cccc(NC(=O)CCCCNC(=O)[C@H](CCCCN)NC(=O)[C@H](Cc2ccc(O)cc2)NC(=O)[C@@H](N)Cc2c[nH]c3ccccc23)c1)C(N)=O [compound 14] (H-WYK[Ava][3Abz][Ava]GRAAGLLSGL-NH2) | 16 nM | 0.19 nM |
| – | – | CC(C)C[C@H](NC(=O)CNC(=O)[C@H](CO)NC(=O)[C@H](CC(C)C)NC(=O)[C@H](CC(C)C)NC(=O)CNC(=O)[C@H](C)NC(=O)[C@H](C)NC(=O)[C@H](CCCNC(=N)N)NC(=O)CNC(=O)CCCCNC(=O)c1ccc(NC(=O)CCCCNC(=O)[C@H](CCCCN)NC(=O)[C@H](Cc2ccc(O)cc2)NC(=O)[C@@H](N)Cc2c[nH]c3ccccc23)cc1)C(N)=O [compound 15] (H-WYK[Ava][4Abz][Ava]GRAAGLLSGL-NH2) | 34 nM | 0.4 nM |
| – | – | CC(C)C[C@H](NC(=O)CNC(=O)[C@H](CO)NC(=O)[C@H](CC(C)C)NC(=O)[C@H](CC(C)C)NC(=O)CNC(=O)[C@H](C)NC(=O)[C@H](C)NC(=O)[C@H](CCCNC(=N)N)NC(=O)CNC(=O)CCCCNC(=O)CCCCNC(=O)c1ccccc1NC(=O)[C@H](CCCCN)NC(=O)[C@H](Cc1ccc(O)cc1)NC(=O)[C@@H](N)Cc1c[nH]c2ccccc12)C(N)=O [compound 16] (H-WYK[2Abz][Ava][Ava]GRAAGLLSGL-NH2) | 160 nM | 1.3 nM |
| – | – | CC(C)C[C@H](NC(=O)CNC(=O)[C@H](CO)NC(=O)[C@H](CC(C)C)NC(=O)[C@H](CC(C)C)NC(=O)CNC(=O)[C@H](C)NC(=O)[C@H](C)NC(=O)[C@H](CCCNC(=N)N)NC(=O)CNC(=O)CCCCNC(=O)CCCCNC(=O)c1cccc(NC(=O)[C@H](CCCCN)NC(=O)[C@H](Cc2ccc(O)cc2)NC(=O)[C@@H](N)Cc2c[nH]c3ccccc23)c1)C(N)=O [compound 17] (H-WYK[3Abz][Ava][Ava]GRAAGLLSGL-NH2) | 33 nM | 0.34 nM |
| – | – | CC(C)C[C@H](NC(=O)CNC(=O)[C@H](CO)NC(=O)[C@H](CC(C)C)NC(=O)[C@H](CC(C)C)NC(=O)CNC(=O)[C@H](C)NC(=O)[C@H](C)NC(=O)[C@H](CCCNC(=N)N)NC(=O)CNC(=O)CCCCNC(=O)CCCCNC(=O)c1ccc(NC(=O)[C@H](CCCCN)NC(=O)[C@H](Cc2ccc(O)cc2)NC(=O)[C@@H](N)Cc2c[nH]c3ccccc23)cc1)C(N)=O [compound 18] (H-WYK[4Abz][Ava][Ava]GRAAGLLSGL-NH2) | 190 nM | 5.6 nM |
